pEC50: −log10 of the molar value.
Biological target: T1, human apelin receptor (Homo sapiens, UniProt P35414)
T1 construct: expressed in transfected cells
T1 sequence (P35414 1-380): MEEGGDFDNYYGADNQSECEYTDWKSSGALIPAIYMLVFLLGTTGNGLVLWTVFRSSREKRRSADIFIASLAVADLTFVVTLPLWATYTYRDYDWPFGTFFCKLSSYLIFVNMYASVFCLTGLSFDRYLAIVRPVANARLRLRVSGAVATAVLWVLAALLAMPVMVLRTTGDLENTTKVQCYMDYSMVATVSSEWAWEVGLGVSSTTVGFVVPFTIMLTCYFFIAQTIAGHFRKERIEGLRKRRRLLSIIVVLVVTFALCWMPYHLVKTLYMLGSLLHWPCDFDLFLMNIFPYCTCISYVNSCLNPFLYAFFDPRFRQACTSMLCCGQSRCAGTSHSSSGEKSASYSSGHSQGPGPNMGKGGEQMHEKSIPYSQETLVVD
Test: Determination of agonism on the human apelin receptor by a calcium fluorescence assay (FLIPR)
Assay type: cell-based
Details: HEK293 cells stably transfected with human apelin receptor and Giaq protein, Fluo-4 calcium fluorescence, read-out: EC50 (APJ agonism)
How it was run: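 Agonist EC50s come from peak intracellular calcium transients recorded by FLIPR Tetra, scaled to the 1 μM apelin-13 maximum per plate. Test system: HEK293 stably transfected with human apelin receptor plus Giaq, Fluo-4-loaded (4 μM, 1 h, 37 °C, pH 7.4 buffer with probenecid); ≥7 concentrations, triplicates.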

SMILES	pEC50
CCC(CC)n1c(Cc2cccs2)nc2cc(C(=O)N[C@@H](CC(C)C)C(=O)NC3CCN(CCc4ccccc4)CC3)ccc21 [Example 338, 1-(1-Ethyl-propyl)-2-thiophen-2-ylmethyl-1H-benzoimidazole-5-carboxylic acid [(S)-3-methyl-1-(1-phenethyl-piperidin-4-ylcarbamoyl)-butyl]-amide]	5.80
CCC(CC)n1c(Cc2cccs2)nc2cc(C(=O)N[C@@H](CC(C)C)C(=O)NCCCN3CCS(=O)(=O)CC3)ccc21 [Example 342, 1-(1-Ethyl-propyl)-2-thiophen-2-ylmethyl-1H-benzoimidazole-5-carboxylic acid {(S)-1-[3-(1,1-dioxo-1lambda6-thiomorpholin-4-yl)-propylcarbamoyl]-3-methyl-butyl}-amide]	6.00
CCC(CC)n1c(Cc2cccs2)nc2cc(C(=O)N[C@@H](CC(C)C)C(=O)NC3CCN(CC4CCCCC4)CC3)ccc21 [Example 344, 1-(1-Ethyl-propyl)-2-thiophen-2-ylmethyl-1H-benzoimidazole-5-carboxylic acid [(S)-1-(1-cyclohexylmethyl-piperidin-4-ylcarbamoyl)-3-methyl-butyl]-amide]	5.77
CCC(CC)n1c(Cc2cccs2)nc2cc(C(=O)N[C@@H](CC(C)C)C(=O)N3CCC(N(C)Cc4ccccc4)CC3)ccc21 [Example 345, 1-(1-Ethyl-propyl)-2-thiophen-2-ylmethyl-1H-benzoimidazole-5-carboxylic acid {(S)-1-[4-(benzyl-methyl-amino)-piperidine-1-carbonyl]-3-methyl-butyl}-amide]	5.78
CCC(CC)n1c(Cc2cccs2)nc2cc(C(=O)N[C@@H](CC(C)C)C(=O)NCCCN3CCC(Cc4ccccc4)CC3)ccc21 [Example 346, 1-(1-Ethyl-propyl)-2-thiophen-2-ylmethyl-1H-benzoimidazole-5-carboxylic acid {(S)-1-[3-(4-benzyl-piperidin-1-yl)-propylcarbamoyl]-3-methyl-butyl}-amide]	5.88
CCC(CC)n1c(Cc2cccs2)nc2cc(C(=O)N[C@@H](CC(C)C)C(=O)N3CC4CC3CN4CC(C)C)ccc21 (stereo partly drawn) [Example 348, 1-(1-Ethyl-propyl)-2-thiophen-2-ylmethyl-1H-benzoimidazole-5-carboxylic acid [(S)-1-(5-isobutyl-2,5-diaza-bicyclo[2.2.1]heptane-2-carbonyl)-3-methyl-butyl]-amide]	5.57
CCC(CC)n1c(Cc2cccs2)nc2cc(C(=O)N[C@@H](CC(C)C)C(=O)N3CC4CC3CN4CC3CCCC3)ccc21 (stereo partly drawn) [Example 349, 1-(1-Ethyl-propyl)-2-thiophen-2-ylmethyl-1H-benzoimidazole-5-carboxylic acid [(S)-1-(5-cyclopentylmethyl-2,5-diaza-bicyclo[2.2.1]heptane-2-carbonyl)-3-methyl-butyl]-amide]	5.52
CCC(CC)n1c(Cc2cccs2)nc2cc(C(=O)N[C@@H](CC(C)C)C(=O)N3CC4CC3CN4Cc3ccc(C(F)(F)F)cc3)ccc21 (stereo partly drawn) [Example 350, 1-(1-Ethyl-propyl)-2-thiophen-2-ylmethyl-1H-benzoimidazole-5-carboxylic acid {(S)-3-methyl-1-[5-(4-trifluoromethyl-benzyl)-2,5-diaza-bicyclo[2.2.1]heptane-2-carbonyl]-butyl}-amide]	4.54
CCC(CC)n1c(Cc2cccs2)nc2cc(C(=O)N[C@@H](CC(C)C)C(=O)N3CC4CC3CN4Cc3ccc(OC)cc3)ccc21 (stereo partly drawn) [Example 351, 1-(1-Ethyl-propyl)-2-thiophen-2-ylmethyl-1H-benzoimidazole-5-carboxylic acid {(S)-1-[5-(4-methoxy-benzyl)-2,5-diaza-bicyclo[2.2.1]heptane-2-carbonyl]-3-methyl-butyl}-amide]	5.03
CCC(CC)n1c(Cc2cccs2)nc2cc(C(=O)N[C@@H](CC(C)C)C(=O)NC3CCN(c4ncccn4)CC3)ccc21 [Example 352, 1-(1-Ethyl-propyl)-2-thiophen-2-ylmethyl-1H-benzoimidazole-5-carboxylic acid [(S)-3-methyl-1-(1-pyrimidin-2-yl-piperidin-4-ylcarbamoyl)-butyl]-amide]	5.53

Further molecules by rising pEC50, results first:

pEC50	SMILES
6.00	CCCC1CCN(CCCNC(=O)[C@H](CC(C)C)NC(=O)c2ccc3c(c2)nc(Cc2cccs2)n3C(CC)CC)CC1 [Example 354, 1-(1-Ethyl-propyl)-2-thiophen-2-ylmethyl-1H-benzoimidazole-5-carboxylic acid {(S)-3-methyl-1-[3-(4-propyl-piperidin-1-yl)-propylcarbamoyl]-butyl}-amide]
6.04	CCC(CC)n1c(Cc2cccs2)nc2cc(C(=O)N[C@@H](CC(C)C)C(=O)NCCCN3CCN(Cc4ccccc4)CC3)ccc21 [Example 341, 1-(1-Ethyl-propyl)-2-thiophen-2-ylmethyl-1H-benzoimidazole-5-carboxylic acid {(S)-1-[3-(4-benzyl-piperazin-1-yl)-propylcarbamoyl]-3-methyl-butyl}-amide]
6.09	CCC(CC)n1c(Cc2cccs2)nc2cc(C(=O)N[C@@H](CC(C)C)C(=O)N3CC4CC3CN4CC)ccc21 (stereo partly drawn) [Example 347, 1-(1-Ethyl-propyl)-2-thiophen-2-ylmethyl-1H-benzoimidazole-5-carboxylic acid [(S)-1-(5-ethyl-2,5-diaza-bicyclo[2.2.1]heptane-2-carbonyl)-3-methyl-butyl]-amide]
6.10	CCC(CC)n1c(Cc2cccs2)nc2cc(C(=O)N[C@@H](CC(C)C)C(=O)NCC3CCN(C(C)c4ccccc4)C3)ccc21 (stereo partly drawn) [Example 353, 1-(1-Ethyl-propyl)-2-thiophen-2-ylmethyl-1H-benzoimidazole-5-carboxylic acid ((S)-3-methyl-1-{[1-(1-phenyl-ethyl)-pyrrolidin-3-ylmethyl]-carbamoyl}-butyl)-amide]
6.35	CCC(CC)n1c(Cc2cccs2)nc2cc(C(=O)N[C@@H](CC(C)C)C(=O)NCCCN3CCCC(C)C3)ccc21 (stereo partly drawn) [Example 339, 1-(1-Ethyl-propyl)-2-thiophen-2-ylmethyl-1H-benzoimidazole-5-carboxylic acid {(S)-3-methyl-1-[3-(3-methyl-piperidin-1-yl)-propylcarbamoyl]-butyl}-amide]
6.38	CCC(CC)n1c(Cc2cccs2)nc2cc(C(=O)N[C@@H](CC(C)C)C(=O)NCC3CN(C)CCO3)ccc21 (stereo partly drawn) [Example 343, 1-(1-Ethyl-propyl)-2-thiophen-2-ylmethyl-1H-benzoimidazole-5-carboxylic acid {(S)-3-methyl-1-[(4-methyl-morpholin-2-ylmethyl)-carbamoyl]-butyl}-amide]
6.48	CCC(CC)n1c(Cc2cccs2)nc2cc(C(=O)N[C@@H](CC(C)C)C(=O)NC3CCN(CC(C)C)CC3)ccc21 [Example 337, 1-(1-Ethyl-propyl)-2-thiophen-2-ylmethyl-1H-benzoimidazole-5-carboxylic acid [(S)-1-(1-isobutyl-piperidin-4-ylcarbamoyl)-3-methyl-butyl]-amide]
6.73	CCC(CC)n1c(Cc2cccs2)nc2cc(C(=O)N[C@@H](CC(C)C)C(=O)NC3CCN(CC)CC3)ccc21 [Example 340, 1-(1-Ethyl-propyl)-2-thiophen-2-ylmethyl-1H-benzoimidazole-5-carboxylic acid [(S)-1-(1-ethyl-piperidin-4-ylcarbamoyl)-3-methyl-butyl]-amide]

— patent US9156796B2, “Benzoimidazole-carboxylic acid amide derivatives as APJ receptor modulators” (SANOFI, priority 2013, dated 2015)
